{
  "source": "patent US10077288B2",
  "about": "“Hydroxystatin derivatives for the treatment of arthrosis” (Merck Patent GmbH, priority 2012, dated 2018)",
  "key": {"[1]": {"test": "Stability in bovine synovial fluid", "assay_type": "in vitro ADME", "details": "1 μM, up to 48 h at 37° C.", "experimental": "EXAMPLE 7: STABILITY OF THE COMPOUNDS ACCORDING TO THE INVENTION IN BOVINE SYNOVIAL FLUID\nIn the preparation of bovine explants (for the diffusion chamber or other assays), either cow hoof (metacarpal joints) or cow knee is used. The synovial fluid can be obtained from both joints. To this end, the synovial fluid is carefully removed from the open joint using a 10 ml syringe and a cannula and transferred into prepared 2 ml Eppendorf vessels. The Eppendorf vessels are labelled depending on the animal (cow passport is available). […] If this is the case, the synovial fluid will become a reddish colour and must consequently be discarded. The synovial fluid is basically highly viscous and clear to yellowish in colour. The removal together with a macroscopic analysis of the synovial fluid is documented.\nIn order to check the stability of individual compounds, a pool of four different bovine synovial fluids is mixed. To this end, about 1 ml per SF is used. The mixture is prepared directly in a 5 ml glass vessel. The SFs are mixed thoroughly, but carefully. No air bubbles or foam should form. To this end, a vortex unit is used at the lowest speed. The compounds to be tested are tested in an initial concentration (unless required otherwise) of 1 μM. After addition of the substance, the batch is again mixed thoroughly and carefully. For visual monitoring, all SF batches are photographed, and the pictures are filed in the eLabBio file for the corresponding experiment. […] The batches are incubated in the incubator for 48 h at 37° C. and 7.5% CO2.\nThe sampling is carried out after the pre-agreed times (unless required otherwise, see below). 200 μl of the SF are removed from the mixture per time and transferred directly into a 0.5 ml “low-binding” Eppendorf vessel. […]\nThe concentrations measured (ng/ml) are plotted against the time in a graph (GraphPad Prism®). The percentage stability of the substance is determined here. […]\nAll compounds measured remained stable (see Table 2 in Example 1)."}, "[2]": {"biological_target": "T1, cathepsin D isolated from the human liver (Homo sapiens, UniProt P07339)", "T1 construct": "cathepsin D isolated from the human liver (Sigma-Aldrich); purchased Sigma-Aldrich; host or cells: human liver (tissue-derived, not recombinant)", "T1 sequence (P07339 65-161 limits assumed)": "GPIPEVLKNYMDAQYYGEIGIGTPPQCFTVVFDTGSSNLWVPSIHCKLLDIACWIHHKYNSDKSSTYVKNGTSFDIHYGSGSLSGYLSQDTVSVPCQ", "T1 sequence (P07339 169-412 limits assumed)": "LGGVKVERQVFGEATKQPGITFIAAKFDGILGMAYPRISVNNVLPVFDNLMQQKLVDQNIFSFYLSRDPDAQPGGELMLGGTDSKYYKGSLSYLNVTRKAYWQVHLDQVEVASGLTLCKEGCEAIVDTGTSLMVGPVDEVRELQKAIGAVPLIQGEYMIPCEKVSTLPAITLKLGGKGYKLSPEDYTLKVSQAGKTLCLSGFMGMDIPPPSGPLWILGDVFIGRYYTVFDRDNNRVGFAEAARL", "test": "In-vitro fluorescence assay for identification of cathepsin D inhibitors", "assay_type": "biochemical", "details": "human liver cathepsin D 1.4 nM, pH 5.5; read-out: CatD assay IC50-(M)", "procedure,_shortened": "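Continuous FRET assay: human liver cathepsin D (1.4 nM final) preincubated 10 min at room temperature with serially diluted compound in 100 mM sodium acetate, 1.25% DMSO, 0.25% Chaps, pH 5.5. Started with 5 μM MCA-GKPILFFRLK(Dnp)d-R-NH2; fluorescence increase (ex 340/em 450 nm) over 60 min at room temperature compared with no-compound control.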"}},
  "data": [
    {"smiles": "CC[C@H](C)[C@H](NC(=O)C[C@H](O)[C@H](Cc1ccccc1)NC(=O)[C@@H](NC(=O)CCc1ccccc1)C(C)C)C(=O)N[C@H](C(=O)O)C(C)C", "note": "[Compound 4, (S)-2-((2S,3S)-2-{(3S,4S)-3-hydroxy-4-[(S)-3-methyl-2-(3-phenyl-propionylamino)butyrylamino]-5-phenylpentanoylamino}-3-methylpentanoylamino)-3-methylbutyric acid]", "values": [
      {"measurement": "Stability in synovial fluid", "setting": "[1]", "result": "stable"},
      {"measurement": "IC50", "setting": "[2]", "result": "3e-08", "unit": "M"}
    ]},
    {"smiles": "CC[C@H](C)[C@H](NC(=O)C[C@H](O)[C@H](Cc1ccccc1)NC(=O)[C@@H](NC(=O)CCCc1ccccc1)C(C)C)C(=O)N[C@H](C(=O)O)C(C)C", "note": "[Compound 5, (S)-2-((2S,3S)-2-{(3S,4S)-3-hydroxy-4-[(S)-3-methyl-2-(4-phenyl-butyrylamino)butyrylamino]-5-phenylpentanoylamino}-3-methylpentanoylamino)-3-methylbutyric acid]", "values": [
      {"measurement": "Stability in synovial fluid", "setting": "[1]", "result": "stable"},
      {"measurement": "IC50", "setting": "[2]", "result": "3.41e-08", "unit": "M"}
    ]},
    {"smiles": "CC[C@H](C)[C@H](NC(=O)C[C@H](O)[C@H](Cc1ccccc1)NC(=O)[C@@H](NC(=O)Cc1cccc(OC)c1)C(C)C)C(=O)N[C@H](C(=O)O)C(C)C", "note": "[Compound 20, (S)-2-[(2S,3S)-2-((3S,4S)-3-hydroxy-4-{(S)-2-[2-(3-methoxyphenyl)-acetylamino]-3-methylbutyrylamino}-5-phenylpentanoylamino)-3-methylpentanoylamino]-3-methylbutyric acid]", "values": [
      {"measurement": "Stability in synovial fluid", "setting": "[1]", "result": "stable"},
      {"measurement": "IC50", "setting": "[2]", "result": "1.2e-08", "unit": "M"}
    ]}
  ]
}
